Earlier results on 1 substance are cited in publication PMC4043931 (Chembiochem : a European journal of chemical biology, 2014).

What all share (settings): listed for comparison; ref [7i], [10]
Series [1] relates to Klebsiella. pneumoniae (ATCC 13383).
Series [2] relates to Pseudomonas aeruginosa (ATCC 27853).
For series [3], the system named is Methicillin-resistant Staphylococcus epidermidis (RP62A).
In series [4] the test system is Vancomycin-resistant Enterococcus faecalis (ATCC 700802).
Series [5] relates to Methicillin-resistant Staphylococcus aureus (ATCC 33591).
The subject of series [6] is human red blood cells (hRBC's).

As to Pexiganan, the “MIC K. pneumoniae” value in series [1] is 8 µg/mL. In series [2], the “MIC P. aeruginosa” value was 16 µg/mL. Moreover, the “MIC S. epidermidis” value in series [3] is 8 µg/mL. The “MIC E. faecalis” value in series [4] was 32 µg/mL. The “MIC S. aureus” value in series [5] is 16 µg/mL. Besides, the “Hemolysis HC50” value in series [6] is 120 µg/mL.
